Measured values taken from PubChem BioAssay (NCI).
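The compound was tested at five concentrations on cells cultured in 96-well plates, with a 48-hour exposure period. GI50 = concentration required for 50% inhibition of growth. The concentration for full growth arrest is given as TGI.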

Key:
Experiment in all cases: growth of human tumour cells (NCI), 48 h
NCI-H460 lung = test system: NCI-H460 lung
A498 renal = test system: A498 renal
OVCAR-5 ovarian = test system: OVCAR-5 ovarian
UACC-62 melanoma = test system: UACC-62 melanoma
ACHN renal = test system: ACHN renal
DU-145 prostate = test system: DU-145 prostate
T-47D breast = test system: T-47D breast
KM12 colon = test system: KM12 colon
UO-31 renal = test system: UO-31 renal
IGROV1 ovarian = test system: IGROV1 ovarian
OVCAR-8 ovarian = test system: OVCAR-8 ovarian
CAKI-1 renal = test system: CAKI-1 renal
SK-MEL-2 melanoma = test system: SK-MEL-2 melanoma
HCT-15 colon = test system: HCT-15 colon
786-0 renal = test system: 786-0 renal
SK-OV-3 ovarian = test system: SK-OV-3 ovarian
LOX IMVI melanoma = test system: LOX IMVI melanoma
SF-539 CNS = test system: SF-539 CNS
NCI-H226 lung = test system: NCI-H226 lung
MDA-MB-231 breast = test system: MDA-MB-231 breast
M14 melanoma = test system: M14 melanoma
RXF 393 renal = test system: RXF 393 renal
OVCAR-3 ovarian = test system: OVCAR-3 ovarian
HCC-2998 colon = test system: HCC-2998 colon
BT-549 breast = test system: BT-549 breast
SR leukemia = test system: SR leukemia
SNB-75 CNS = test system: SNB-75 CNS
HT29 colon = test system: HT29 colon
HCT-116 colon = test system: HCT-116 colon
MOLT-4 leukemia = test system: MOLT-4 leukemia
SNB-19 CNS = test system: SNB-19 CNS
SK-MEL-5 melanoma = test system: SK-MEL-5 melanoma
MALME-3M melanoma = test system: MALME-3M melanoma
HL-60(TB) leukemia = test system: HL-60(TB) leukemia
HS 578T breast = test system: HS 578T breast
NCI/ADR-RES ovarian = test system: NCI/ADR-RES ovarian
OVCAR-4 ovarian = test system: OVCAR-4 ovarian
MDA-MB-435 = test system: MDA-MB-435
K-562 leukemia = test system: K-562 leukemia
SF-295 CNS = test system: SF-295 CNS
COLO 205 colon = test system: COLO 205 colon
SN12C renal = test system: SN12C renal
SF-268 CNS = test system: SF-268 CNS
EKVX NSCLC = test system: EKVX NSCLC
CCRF-CEM leukemia = test system: CCRF-CEM leukemia
NCI-H23 lung = test system: NCI-H23 lung
UACC-257 melanoma = test system: UACC-257 melanoma
TK-10 renal = test system: TK-10 renal
MCF7 breast = test system: MCF7 breast
HOP-62 NSCLC = test system: HOP-62 NSCLC
RPMI-8226 leukemia = test system: RPMI-8226 leukemia
SK-MEL-28 melanoma = test system: SK-MEL-28 melanoma
NCI-H522 lung = test system: NCI-H522 lung
SW-620 colon = test system: SW-620 colon
A549 NSCLC = test system: A549 NSCLC
U251 CNS = test system: U251 CNS
PC-3 prostate = test system: PC-3 prostate

`Cc1cc(N2CCOCC2)cc2[nH]c(-c3c(NC[C@@H](O)c4cccc(Cl)c4)cc[nH]c3=O)nc12` showed a GI50 (NCI-H460 lung) of 0.51 µM, a TGI (NCI-H460 lung) of 11.2 µM and a GI50 (A498 renal) of 0.35 µM. It also gave a TGI (A498 renal) of 1.15 µM, a GI50 (OVCAR-5 ovarian) of 0.673 µM and a TGI (OVCAR-5 ovarian) of 9.66 µM. It also gave a GI50 (UACC-62 melanoma) of 2.36 µM, a TGI (UACC-62 melanoma) of 12.6 µM and a GI50 (ACHN renal) of 2.84 µM. The TGI (ACHN renal) was 80.2 µM, the GI50 (DU-145 prostate) was 1.42 µM and the TGI (DU-145 prostate) was 14.7 µM. The GI50 (T-47D breast) was 4.17 µM, the TGI (T-47D breast) was 37.8 µM and the GI50 (KM12 colon) was 0.0161 µM. It also gave a TGI (KM12 colon) of 4.46 µM, a GI50 (UO-31 renal) of 0.275 µM and a TGI (UO-31 renal) of 2.98 µM. It also gave a GI50 (IGROV1 ovarian) of 0.912 µM, a TGI (IGROV1 ovarian) of 5.28 µM and a GI50 (OVCAR-8 ovarian) of 3.23 µM. The TGI (OVCAR-8 ovarian) was 14.7 µM, the GI50 (CAKI-1 renal) was 1.46 µM and the TGI (CAKI-1 renal) was 5.72 µM. The GI50 (SK-MEL-2 melanoma) was 1.98 µM, the TGI (SK-MEL-2 melanoma) was 5.98 µM and the GI50 (HCT-15 colon) was 2.08 µM. The TGI (HCT-15 colon) was 31.5 µM, the GI50 (786-0 renal) was 1.21 µM and the TGI (786-0 renal) was 4.02 µM. For the same compound, the GI50 (SK-OV-3 ovarian) was 4.56 µM, the TGI (SK-OV-3 ovarian) was 25 µM and the GI50 (LOX IMVI melanoma) was 0.387 µM. For the same compound, the TGI (LOX IMVI melanoma) was 2.19 µM, the GI50 (SF-539 CNS) was 2.02 µM and the TGI (SF-539 CNS) was 4.85 µM. It also gave a GI50 (NCI-H226 lung) of 0.361 µM, a TGI (NCI-H226 lung) of 5.89 µM and a GI50 (MDA-MB-231 breast) of 1.22 µM. For the same compound, the TGI (MDA-MB-231 breast) was 5.37 µM, the GI50 (M14 melanoma) was 0.925 µM and the TGI (M14 melanoma) was 7.66 µM. The GI50 (RXF 393 renal) was 0.567 µM, the TGI (RXF 393 renal) was 2.11 µM and the GI50 (OVCAR-3 ovarian) was 5.58 µM. For the same compound, the TGI (OVCAR-3 ovarian) was 27.7 µM, the GI50 (HCC-2998 colon) was 1.57 µM and the TGI (HCC-2998 colon) was 6.15 µM. The GI50 (BT-549 breast) was 1.83 µM, the TGI (BT-549 breast) was 7.18 µM and the GI50 (SR leukemia) was 0.295 µM. For the same compound, the TGI (SR leukemia) was 5.06 µM, the GI50 (SNB-75 CNS) was 1.15 µM and the TGI (SNB-75 CNS) was 2.47 µM. For the same compound, the GI50 (HT29 colon) was 0.0672 µM, the TGI (HT29 colon) was 1.81 µM and the GI50 (HCT-116 colon) was 1.64 µM. The TGI (HCT-116 colon) was 6.67 µM, the GI50 (MOLT-4 leukemia) was 3.14 µM and the TGI (MOLT-4 leukemia) was 27.7 µM. It also gave a GI50 (SNB-19 CNS) of 3.29 µM, a TGI (SNB-19 CNS) of 22.8 µM and a GI50 (SK-MEL-5 melanoma) of 2.13 µM. For the same compound, the TGI (SK-MEL-5 melanoma) was 11.3 µM, the GI50 (MALME-3M melanoma) was 1.68 µM and the TGI (MALME-3M melanoma) was 14.8 µM. For the same compound, the GI50 (HL-60(TB) leukemia) was 0.0567 µM, the TGI (HL-60(TB) leukemia) was 2.45 µM and the GI50 (HS 578T breast) was 1.04 µM. For the same compound, the TGI (HS 578T breast) was 4.42 µM, the GI50 (NCI/ADR-RES ovarian) was 2.83 µM and the TGI (NCI/ADR-RES ovarian) was 12.3 µM. For the same compound, the GI50 (OVCAR-4 ovarian) was 4.21 µM, the TGI (OVCAR-4 ovarian) was 40.4 µM and the GI50 (MDA-MB-435) was 1.07 µM. It also gave a TGI (MDA-MB-435) of 7.9 µM, a GI50 (K-562 leukemia) of 2.94 µM and a TGI (K-562 leukemia) of 13 µM. It also gave a GI50 (SF-295 CNS) of 2.72 µM, a TGI (SF-295 CNS) of 18.9 µM and a GI50 (COLO 205 colon) of 0.118 µM. It also gave a TGI (COLO 205 colon) of 0.642 µM, a GI50 (SN12C renal) of 0.798 µM and a TGI (SN12C renal) of 12.7 µM. It also gave a GI50 (SF-268 CNS) of 2.06 µM, a TGI (SF-268 CNS) of 7.63 µM and a GI50 (EKVX NSCLC) of 1.62 µM. It also gave a TGI (EKVX NSCLC) of 29.1 µM, a GI50 (CCRF-CEM leukemia) of 4.01 µM and a TGI (CCRF-CEM leukemia) greater than 100 µM. The GI50 (NCI-H23 lung) was 1.29 µM, the TGI (NCI-H23 lung) was 11.3 µM and the GI50 (UACC-257 melanoma) was 0.385 µM. It also gave a TGI (UACC-257 melanoma) of 7.37 µM, a GI50 (TK-10 renal) of 1.55 µM and a TGI (TK-10 renal) of 4.4 µM. The GI50 (MCF7 breast) was 0.233 µM, the TGI (MCF7 breast) was 15.8 µM and the GI50 (HOP-62 NSCLC) was 2.16 µM. The TGI (HOP-62 NSCLC) was 12.3 µM, the GI50 (RPMI-8226 leukemia) was 3.22 µM and the TGI (RPMI-8226 leukemia) was greater than 100 µM. It also gave a GI50 (SK-MEL-28 melanoma) of 2.15 µM, a TGI (SK-MEL-28 melanoma) of 13.5 µM and a GI50 (NCI-H522 lung) of 1.78 µM. For the same compound, the TGI (NCI-H522 lung) was 6.18 µM, the GI50 (SW-620 colon) was 1.05 µM and the TGI (SW-620 colon) was 11.2 µM. The GI50 (A549 NSCLC) was 0.903 µM, the TGI (A549 NSCLC) was 4.31 µM and the GI50 (U251 CNS) was 1.65 µM. The TGI (U251 CNS) was 4.38 µM, the GI50 (PC-3 prostate) was 3.7 µM and the TGI (PC-3 prostate) was greater than 100 µM.
